Experimental data reported in US7662825B2, “N-pyrazinyl-phenylsulphonamides and their use in the treatment of chemokine mediated diseases” (AstraZeneca AB, priority 2002, dated 2010).

Row | SMILES | melting point
1 | COc1nc(Br)c(Cl)nc1NS(=O)(=O)c1cccc(Cl)c1Cl [Example 125, N-(5-Bromo-6-chloro-3-methoxy-2-pyrazinyl)-2,3-dichlorobenzenesulphonamide] | 177 to 178 °C
2 | COC(=O)c1nc(OC)c(NS(=O)(=O)c2cccc(Cl)c2Cl)nc1Cl [Example 126, 3-Chloro-5-{[(2,3-dichlorophenyl)sulphonyl]amino}-6-methoxypyrazine-2-carboxylic acid, methyl ester] | 200 to 201 °C
3 | COc1nc(CO)c(Cl)nc1NS(=O)(=O)c1cccc(Cl)c1Cl [Example 127, 2,3-Dichloro-N-[6-chloro-5-(hydroxymethyl)-3-methoxypyrazin-2-yl]benzenesulphonamide] | 145 to 147 °C
4 | COCc1nc(OC)c(NS(=O)(=O)c2cccc(Cl)c2Cl)nc1Cl [Example 129, 2,3-Dichloro-N-[6-chloro-3-methoxy-5-(methoxymethyl)-2-pyrazinyl]benzenesulphonamide] | 193 to 196 °C
5 | COc1nc(Cl)cnc1NS(=O)(=O)c1cccc(F)c1Cl [Example 130, 2-Chloro-N-(5-chloro-3-methoxy-2-pyrazinyl)-3-fluorobenzenesulphonamide] | 159 to 159.5 °C
6 | COc1nccnc1NS(=O)(=O)c1cccc(F)c1Cl [Example 131, 2-Chloro-3-fluoro-N-(3-methoxy-2-pyrazinyl)benzenesulphonamide] | 144 to 145 °C
7 | COc1cccc(S(=O)(=O)Nc2nccnc2OC)c1Cl [Example 132, 2-Chloro-3-methoxy-N-(3-methoxy-2-pyrazinyl)benzenesulphonamide] | 151 to 152 °C
8 | O=S(=O)(Nc1ncc(Br)nc1OC[C@@H]1CCCN1)c1cccc(Cl)c1Cl [Example 133, N-[5-Bromo-3-[(2S)-2-pyrrolidinylmethoxy]-2-pyrazinyl]-2,3-dichlorobenzenesulphonamide] | 199 to 200 °C
9 | CNC(=O)CSc1cnc(NS(=O)(=O)c2cccc(Cl)c2Cl)c(OC)n1 [Example 168, 2-[5-(2,3-Dichlorobenzenesulphonylamino)-6methoxy-2-pyrazinylsulphanyl]-N-methylacetamide] | 150 to 152 °C
10 | CN(C)Cc1ccc(COc2nc(Br)cnc2NS(=O)(=O)c2cccc(Cl)c2Cl)o1 [Example 176, N-[5-Bromo-3-(5-dimethylaminomethyl-2-furanylmethoxy)-2-pyrazinyl]-2,3-dichloro-benzenesulphonamide] | 206 to 207 °C
11 | CN(C)Cc1ccc(COc2ncc(Cl)nc2NS(=O)(=O)c2cccc(Cl)c2Cl)o1 [Example 180, 2,3-Dichloro-N-[6-chloro-3-(5-dimethylaminomethyl-2-furanylmethoxy)-2-pyrazinyl]benzenesulphonamide] | 209 to 210 °C
12 | CN(C)Cc1ccc(COc2nc(Cl)cnc2NS(=O)(=O)c2cccc(Cl)c2Cl)o1 [Example 182, 2,3-Dichloro-N-[5-chloro-3-(5-dimethylaninomethyl-2-furanylmethoxy)-2-pyrazinyl]benzenesulphonamide] | 209 to 210 °C
13 | CNCc1ccc(COc2nccnc2NS(=O)(=O)c2cccc(Cl)c2Cl)o1 [Example 183, 2,3-Dichloro-N-[3-(5-methylaminomethyl-2-furanylmethoxy)-2-pyrazinyl]benzenesulphonamide] | 198 to 199 °C
14 | COc1nc(Br)cnc1NS(=O)(=O)c1ccccc1C#N [Example 184, N-(5-Bromo-3-methoxypyrazinyl)-2-cyanobenzenesulphonamide] | 190 to 191.5 °C
15 | COc1nc(Br)cnc1NS(=O)(=O)c1ccc(F)c(Cl)c1Cl [Example 185, N-(5-Bromo-3-methoxypyrazinyl)-2,3-dichloro-4-fluorobenzenesulphonamide] | 208 to 211 °C
16 | C=CCOc1nc(Cl)cnc1NS(=O)(=O)c1cccc(Cl)c1Cl [Example 187, N-(3-Allyloxy-5-chloro-2-pyrazinyl)-2,3-dichlorobenzenesulphonamide] | 145 to 146 °C
17 | C#CCOc1nc(Cl)cnc1NS(=O)(=O)c1cccc(Cl)c1Cl [Example 188, 2,3-Dichloro-N-[5-chloro-3-(2-propynyloxy)-2-pyrazinyl]benzenesulphonamide] | 138 to 139 °C
18 | C#CCOc1nccnc1NS(=O)(=O)c1cccc(Cl)c1Cl [Example 189, 2,3-Dichloro-N-[3-(2-propynyloxy)-2-pyrazinyl)benzenesulphonamide] | 153 to 154 °C

The remaining lines, values ahead:

Row | melting point | SMILES
19 | 187 to 188 °C | COc1ccc(COc2nccnc2NS(=O)(=O)c2cccc(Cl)c2Cl)cn1 [Example 128, 2,3-Dichloro-N-{3-[(6-methoxy-3-pyridinyl)methoxy]-2-pyrazinyl}benzenesulphonamide]
20 | 209 to 210 °C | COC(=O)c1cnc(NS(=O)(=O)c2cccc(Cl)c2Cl)c(OCc2cccnc2)n1 [Example 134, 5-(2,3-Dichlorobenzenesulphonylamino)-6-(3-pyridinylmethoxy)pyrazine-2-carboxylic acid, methyl ester]
21 | 174 to 178 °C | NC(=O)c1cnc(NS(=O)(=O)c2cccc(Cl)c2Cl)c(OCc2cccnc2)n1 [Example 135, 5-{[(2,3-Dichlorophenyl)sulphonyl]amino}-6-(3-pyridinylmethoxy)-2-pyrazinecarboxamide]
22 | 210 °C (dec.) | O=S(=O)(Nc1ncc(-c2ccncc2)nc1OCc1cccnc1)c1cccc(Cl)c1Cl [Example 136, 2,3-Dichloro-N-[5-(4-pyridinyl)-3-(3-pyridinylmethoxy)-2-pyrazinyl]benzenesulphonaminde]
23 | 160 to 161 °C | COc1nc(CO)cnc1NS(=O)(=O)c1cccc(Cl)c1Cl [Example 138]
24 | 120 to 121 °C | C=CCOc1cnc(NS(=O)(=O)c2cccc(Cl)c2Cl)c(OC)n1 [Example 139, N-(5-Allyloxy-3-methoxy-2-pyrazinyl)-2,3-dichlorobenzenesulphonamide]
25 | 155 °C (dec.) | COc1nc(COc2cnccn2)cnc1NS(=O)(=O)c1cccc(Cl)c1Cl [Example 140, 2,3-Dichloro-N-{3-methoxy-5-[(pyrazinyloxy)methyl]-2-pyrazinyl}benzenesulphonamide]
26 | 199 to 201 °C | O=S(=O)(Nc1ncc(Cl)nc1OCc1cncc(Br)c1)c1cccc(Cl)c1Cl [Example 142, N-{3-[(5-Bromo-3-pyridinyl)methoxy]-5-chloro-2-pyrazinyl}-2,3-dichlorobenzenesulphonamide]
27 | 220 °C | O=S(=O)(Nc1ncc(Cl)nc1OCc1cccc(CO)n1)c1cccc(Cl)c1Cl [Example 143, 2,3-Dichloro-N-[5-chloro-3-{[6-(hydroxymethyl)-2-pyridinyl]methoxy}-2-pyrazinyl]benzenesulphonamide]
28 | 172 to 173 °C | Cc1nc(COc2nc(Cl)cnc2NS(=O)(=O)c2cccc(Cl)c2Cl)co1 [Example 144, 2,3-Dichloro-N-{5-chloro-3-[(2-methyl-4-oxazolyl)methoxy]-2-pyrazinyl}benzenesulphonamide]
29 | 96 to 97 °C | CCOc1cnc(NS(=O)(=O)c2cccc(Cl)c2Cl)c(OC)n1 [Example 166, 2,3-Dichloro-N-(5-ethoxy-3-methoxy-2-pyrazinyl)benzenesulphonamide]
30 | 248 to 249 °C | COc1nc(-n2cncn2)cnc1NS(=O)(=O)c1cccc(Cl)c1Cl [Example 167, 2,3-Dichloro-N-[3-methoxy-5-([1,2,4]-1-triazolyl)-2-pyrazinyl]benzenesulphonamide]
31 | 163 to 164 °C | COc1nc(SCC(N)=O)cnc1NS(=O)(=O)c1cccc(Cl)c1Cl [Example 169, 2-[5-(2,3-Dichlorobenzenesulphonylamino)-6-methoxy-2-pyrazinylsulphanyl]acetamide]
32 | 119 to 120 °C | COc1nc(SCc2ccc(F)cc2)cnc1NS(=O)(=O)c1cccc(Cl)c1Cl [Example 170, 2,3-Dichloro-N-[5-(4-fluorobenzylsulphanyl)-3-methoxy-2-pyrazinyl]benzenesulphonamide]
33 | 158 to 159 °C | COc1nc(SCC#N)cnc1NS(=O)(=O)c1cccc(Cl)c1Cl [Example 171, 2,3-Dichloro-N-[5-cyanomethylsulphanyl-3-methoxy-2-pyrazinyl]benzenesulphonamide]
34 | 154 to 156 °C | COc1nc(SCc2ncon2)cnc1NS(=O)(=O)c1cccc(Cl)c1Cl [Example 172, 2,3-Dichloro-N-[3-methoxy-5-([1,2,4]-3-oxadiazolylmethylsulphanyl)-2-pyrazinyl]benzenesulphonamide]
35 | 189 to 190 °C | COc1nc(SCCN)cnc1NS(=O)(=O)c1cccc(Cl)c1Cl [Example 173, N-[5-(2-Aminoethylsulphanyl)-3-methoxy-2-pyrazinyl]-2,3-dichlorobenzenesulphonamide]
36 | 142 to 143 °C | COc1nc(OCc2cc(C)on2)cnc1NS(=O)(=O)c1cccc(Cl)c1Cl [Example 174]
37 | 114 to 115 °C | COc1nc(OCc2ccc(CN(C)C)o2)cnc1NS(=O)(=O)c1cccc(Cl)c1Cl [Example 175, 2,3-Dichloro-N-[5-(5-dimethylaminomethyl-2-furanylmethoxy)-3-methoxy-2-pyrazinyl]benzenesulphonamide]
38 | 180 to 181 °C | COc1nc(SCCO)cnc1NS(=O)(=O)c1cccc(Cl)c1Cl [Example 177, 2,3-Dichloro-N-[5-(2-hydroxyethylsulphanyl)-3-methoxy-2-pyrazinyl]benzenesulphonamide]
39 | 239 to 240 °C | COc1nc(C#N)cnc1NS(=O)(=O)c1cccc(Cl)c1Cl [Example 190, 2,3-Dichloro-N-(5-cyano-3-methoxy-2-pyrazinyl)benzenesulphonamide]
40 | 50 to 60 °C | COc1ncc(C)nc1NS(=O)(=O)c1cccc(Cl)c1Cl [Example 194, 2,3-Dichloro-N-(3-methoxy-6-methyl-2-pyrazinyl)benzenesulphonamide]
41 | 95 to 105 °C | COc1nc(Cn2cncn2)cnc1NS(=O)(=O)c1cccc(Cl)c1Cl [Example 195, 2,3-Dichloro-N-[3-methoxy-5-(1H-1,2,4-triazol-1-ylmethyl)-2-pyrazinyl]benzenesulphonamide]
